Data taken from ChEMBL document CHEMBL1201862, “PubChem BioAssay data set” (2004).
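Cells were grown in 96-well plates and exposed to each compound for 48 hours at five concentrations; endpoints were interpolated linearly between bracketing concentrations, or set to the highest concentration if not reached. At the GI50, growth is halved.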 The source made the active and inactive calls. Cut-off read from the data, not from the text of the source: active = GI50 up to about 1.1 µM and inactive = higher.

Key:
Assay in all cases: DTP human tumour cell line panel, 48 h
786-0 = test system: 786-0
A498 = test system: A498
A549 = test system: A549
ACHN = test system: ACHN
BT-549 = test system: BT-549
CAKI-1 = test system: CAKI-1
CCRF-CEM = test system: CCRF-CEM
COLO 205 = test system: COLO 205
DU-145 = test system: DU-145
EKVX = test system: EKVX
HCT-116 = test system: HCT-116
HCT-15 = test system: HCT-15
HL-60 = test system: HL-60
HOP-62 = test system: HOP-62
HOP-92 = test system: HOP-92
HT-29 = test system: HT-29
Hs-578T = test system: Hs-578T
IGROV-1 = test system: IGROV-1
K562 = test system: K562
KM12 = test system: KM12
LOX IMVI = test system: LOX IMVI
M14 = test system: M14
MCF7 = test system: MCF7
MDA-MB-231 = test system: MDA-MB-231
MDA-MB-435 = test system: MDA-MB-435
MDA-N = test system: MDA-N
MOLT-4 = test system: MOLT-4
Malme-3M = test system: Malme-3M
NCI-H226 = test system: NCI-H226
NCI-H23 = test system: NCI-H23
NCI-H460 = test system: NCI-H460
NCI-H522 = test system: NCI-H522
NCI/ADR-RES = test system: NCI/ADR-RES
OVCAR-3 = test system: OVCAR-3
OVCAR-4 = test system: OVCAR-4
OVCAR-5 = test system: OVCAR-5
OVCAR-8 = test system: OVCAR-8
PC-3 = test system: PC-3
RXF 393 = test system: RXF 393
SF-268 = test system: SF-268
SF-295 = test system: SF-295
SF-539 = test system: SF-539
SK-MEL-28 = test system: SK-MEL-28
SK-MEL-2 = test system: SK-MEL-2
SK-MEL-5 = test system: SK-MEL-5
SK-OV-3 = test system: SK-OV-3
SN12C = test system: SN12C
SNB-19 = test system: SNB-19
SNB-75 = test system: SNB-75
SW-620 = test system: SW-620
T47D = test system: T47D
TK-10 = test system: TK-10
U-251 = test system: U-251
UACC-257 = test system: UACC-257
UACC-62 = test system: UACC-62
UO-31 = test system: UO-31
RPMI-8226 = test system: RPMI-8226
HCC 2998 = test system: HCC 2998

## COC(=O)[C@]1(C)CC[C@]2(C)CC[C@]3(C)C4[C@H]5Oc6c(cc7c(c6C)CCC6[C@@]7(C)CC[C@@]7(C)C8[C@](C)(CCC[C@@]8(C)C(=O)OC)CC[C@]67C)O[C@H]5c5c(cc6c(c5C)O[C@@]5(C)C7=CC=C8[C@@](C)(CC[C@@]9(C)[C@@H]%10C[C@](C)(C(=O)OC)CC[C@]%10(C)CC[C@]89C)C7=CC(=O)[C@@]5(O)O6)[C@]4(C)CC[C@@]3(C)C2C1 (stereo not given in full)
786-0
  GI50: 1.86 µM (inactive)
A498
  GI50: > 12.5 µM (inactive)
A549
  GI50: > 12.5 µM (inactive)
ACHN
  GI50: 3.94 µM (inactive)
BT-549
  GI50: 7.03 µM (inactive)
CAKI-1
  GI50: 6.22 µM (inactive)
CCRF-CEM
  GI50: 1.19 µM (inactive)
COLO 205
  GI50: 6.35 µM (inactive)
DU-145
  GI50: 3.6 µM (inactive)
EKVX
  GI50: 3.42 µM (inactive)
HCT-116
  GI50: 2.34 µM (inactive)
HCT-15
  GI50: 3.45 µM
HL-60
  GI50: 5.32 µM (inactive)
HOP-62
  GI50: 8.51 µM (inactive)
HOP-92
  GI50: 1.92 µM (inactive)
HT-29
  GI50: 3.66 µM (inactive)
Hs-578T
  GI50: 5.78 µM (inactive)
IGROV-1
  GI50: 2.62 µM (inactive)
K562
  GI50: 3.46 µM (inactive)
KM12
  GI50: > 12.5 µM (inactive)
LOX IMVI
  GI50: 2.27 µM (inactive)
M14
  GI50: 4.01 µM (inactive)
MCF7
  GI50: 3.11 µM (inactive)
MDA-MB-231
  GI50: 3.11 µM (inactive)
MDA-MB-435
  GI50: 3.56 µM (inactive)
MDA-N
  GI50: 1.93 µM (inactive)
MOLT-4
  GI50: 1.39 µM (inactive)
Malme-3M
  GI50: 4.86 µM (inactive)
NCI-H226
  GI50: > 12.5 µM (inactive)
NCI-H23
  GI50: 8.97 µM (inactive)
NCI-H460
  GI50: 8.91 µM (inactive)
NCI-H522
  GI50: 2.49 µM (inactive)
NCI/ADR-RES
  GI50: > 12.5 µM (inactive)
OVCAR-3
  GI50: 2.64 µM (inactive)
OVCAR-4
  GI50: 7.59 µM (inactive)
OVCAR-5
  GI50: 9.79 µM (inactive)
OVCAR-8
  GI50: 2.63 µM (inactive)
PC-3
  GI50: 4.15 µM (inactive)
RXF 393
  GI50: 1.91 µM (inactive)
SF-268
  GI50: 4.5 µM (inactive)
SF-295
  GI50: > 12.5 µM (inactive)
SF-539
  GI50: 2.63 µM (inactive)
SK-MEL-28
  GI50: 7.53 µM (inactive)
SK-MEL-2
  GI50: 3.01 µM (inactive)
SK-MEL-5
  GI50: 3.69 µM (inactive)
SK-OV-3
  GI50: > 12.5 µM (inactive)
SN12C
  GI50: 2.35 µM (inactive)
SNB-19
  GI50: 5.05 µM (inactive)
SNB-75
  GI50: 2.79 µM (inactive)
SW-620
  GI50: 2.53 µM (inactive)
T47D
  GI50: 2.11 µM (inactive)
TK-10
  GI50: 2.6 µM (inactive)
U-251
  GI50: 3.66 µM (inactive)
UACC-257
  GI50: 2.83 µM (inactive)
UACC-62
  GI50: 2.32 µM (inactive)
UO-31
  GI50: 2.52 µM (inactive)

## CC1OC(O)C(O)C(O)C1O (stereo not given)
786-0
  GI50: > 100 µM (inactive)
A498
  GI50: > 100 µM (inactive)
A549
  GI50: > 100 µM (inactive)
ACHN
  GI50: > 100 µM (inactive)
BT-549
  GI50: > 100 µM (inactive)
CAKI-1
  GI50: > 100 µM (inactive)
COLO 205
  GI50: > 100 µM (inactive)
DU-145
  GI50: > 100 µM (inactive)
EKVX
  GI50: > 100 µM (inactive)
HCT-116
  GI50: > 100 µM (inactive)
HCT-15
  GI50: > 100 µM
HOP-62
  GI50: > 100 µM (inactive)
HOP-92
  GI50: > 100 µM (inactive)
HT-29
  GI50: > 100 µM (inactive)
Hs-578T
  GI50: > 100 µM (inactive)
IGROV-1
  GI50: > 100 µM (inactive)
K562
  GI50: > 100 µM (inactive)
KM12
  GI50: > 100 µM (inactive)
LOX IMVI
  GI50: > 100 µM (inactive)
M14
  GI50: > 100 µM (inactive)
MCF7
  GI50: > 100 µM (inactive)
MDA-MB-231
  GI50: > 100 µM (inactive)
MDA-MB-435
  GI50: > 100 µM (inactive)
MDA-N
  GI50: > 100 µM (inactive)
Malme-3M
  GI50: > 100 µM (inactive)
NCI-H226
  GI50: > 100 µM (inactive)
NCI-H23
  GI50: > 100 µM (inactive)
NCI-H460
  GI50: > 100 µM (inactive)
NCI-H522
  GI50: > 100 µM (inactive)
NCI/ADR-RES
  GI50: > 100 µM (inactive)
OVCAR-3
  GI50: > 100 µM (inactive)
OVCAR-4
  GI50: > 100 µM (inactive)
OVCAR-5
  GI50: > 100 µM (inactive)
OVCAR-8
  GI50: > 100 µM (inactive)
PC-3
  GI50: > 100 µM (inactive)
RPMI-8226
  GI50: > 100 µM (inactive)
RXF 393
  GI50: > 100 µM (inactive)
SF-268
  GI50: > 100 µM (inactive)
SF-295
  GI50: > 100 µM (inactive)
SF-539
  GI50: > 100 µM (inactive)
SK-MEL-28
  GI50: > 100 µM (inactive)
SK-MEL-2
  GI50: > 100 µM (inactive)
SK-MEL-5
  GI50: > 100 µM (inactive)
SK-OV-3
  GI50: > 100 µM (inactive)
SN12C
  GI50: > 100 µM (inactive)
SNB-19
  GI50: > 100 µM (inactive)
SNB-75
  GI50: > 100 µM (inactive)
SW-620
  GI50: > 100 µM (inactive)
T47D
  GI50: > 100 µM (inactive)
TK-10
  GI50: > 100 µM (inactive)
U-251
  GI50: > 100 µM (inactive)
UACC-257
  GI50: > 100 µM (inactive)
UACC-62
  GI50: > 100 µM (inactive)
UO-31
  GI50: > 100 µM (inactive)

## S=c1scc(-c2ccc(Cl)cc2)n1OC1CCCC1
786-0
  GI50: 37 µM (inactive)
A498
  GI50: 26.1 µM (inactive)
A549
  GI50: 26.2 µM (inactive)
ACHN
  GI50: 25.5 µM (inactive)
BT-549
  GI50: 30.2 µM (inactive)
CAKI-1
  GI50: 47.2 µM (inactive)
COLO 205
  GI50: 12 µM (inactive)
DU-145
  GI50: 29.4 µM (inactive)
EKVX
  GI50: 28.1 µM (inactive)
HCC 2998
  GI50: 23.9 µM (inactive)
HCT-116
  GI50: 22.2 µM (inactive)
HCT-15
  GI50: 21.8 µM
HL-60
  GI50: 22 µM (inactive)
HOP-62
  GI50: 36.7 µM (inactive)
HOP-92
  GI50: 21.3 µM (inactive)
HT-29
  GI50: 20.9 µM (inactive)
Hs-578T
  GI50: 82.6 µM (inactive)
IGROV-1
  GI50: 48.8 µM (inactive)
K562
  GI50: 16.1 µM (inactive)
KM12
  GI50: 18.5 µM (inactive)
LOX IMVI
  GI50: 23.6 µM (inactive)
M14
  GI50: 36.9 µM (inactive)
MCF7
  GI50: 27 µM (inactive)
MDA-MB-231
  GI50: 39.5 µM (inactive)
MDA-MB-435
  GI50: 15.7 µM (inactive)
MDA-N
  GI50: 21.6 µM (inactive)
MOLT-4
  GI50: 15.9 µM (inactive)
Malme-3M
  GI50: 56.2 µM (inactive)
NCI-H23
  GI50: 16.9 µM (inactive)
NCI-H460
  GI50: 25.2 µM (inactive)
NCI-H522
  GI50: 16.4 µM (inactive)
NCI/ADR-RES
  GI50: 23.8 µM (inactive)
OVCAR-3
  GI50: 16.7 µM (inactive)
OVCAR-4
  GI50: 16.7 µM (inactive)
OVCAR-5
  GI50: 52.2 µM (inactive)
OVCAR-8
  GI50: 33.8 µM (inactive)
PC-3
  GI50: 29.9 µM (inactive)
RXF 393
  GI50: 17.1 µM (inactive)
SF-268
  GI50: 72.9 µM (inactive)
SF-295
  GI50: 30.5 µM (inactive)
SF-539
  GI50: 10.8 µM (inactive)
SK-MEL-28
  GI50: 72.4 µM (inactive)
SK-MEL-2
  GI50: 18.3 µM (inactive)
SK-MEL-5
  GI50: 11.4 µM (inactive)
SK-OV-3
  GI50: 36.2 µM (inactive)
SN12C
  GI50: 35.8 µM (inactive)
SNB-19
  GI50: 69 µM (inactive)
SNB-75
  GI50: 36.5 µM (inactive)
SW-620
  GI50: 32.7 µM (inactive)
T47D
  GI50: 12.9 µM (inactive)
TK-10
  GI50: 72.8 µM (inactive)
U-251
  GI50: 15.6 µM (inactive)
UACC-257
  GI50: 27 µM (inactive)
UACC-62
  GI50: 24.4 µM (inactive)
UO-31
  GI50: 40.6 µM (inactive)
